PubChem BioAssay AID2060910 (Molecular Pharmacology Branch, DTP, NCI, 2025)

Tested on: 242566-281-R-J2-PDC complex spheroid viability
Assay: Anticancer human tumor 242566-281-R-J2-PDC patient-derived pancreatic carcinoma cell line growth inhibition [RAS]
Conditions: for IC50: curve of first compound; for viability, T/C: stronger effect = lower value
How it was run: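 Multi-cell-type spheroids: tumor cells plus HUVEC endothelial cells and mesenchymal stem cells. RAS-pathway inhibitors were combined with targeted agents, each dosed in half-log steps down from clinical Cmax, or from 10 microM when Cmax was unknown.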

[1] = second compound 0.00316 µM, first compound 0.0316 µM
[2] = second compound 0.00316 µM, first compound 0.1 µM
[3] = second compound 0.00316 µM, first compound 0.316 µM
[4] = second compound 0.00316 µM, first compound 1 µM
[5] = second compound 0.01 µM, first compound 0.0316 µM
[6] = second compound 0.01 µM, first compound 0.1 µM
[7] = second compound 0.01 µM, first compound 0.316 µM
[8] = second compound 0.01 µM, first compound 1 µM
[9] = second compound 0.0316 µM, first compound 0.0316 µM
[10] = second compound 0.0316 µM, first compound 0.1 µM
[11] = second compound 0.0316 µM, first compound 0.316 µM
[12] = second compound 0.0316 µM, first compound 1 µM
[13] = second compound 0.1 µM, first compound 0.0316 µM
[14] = second compound 0.1 µM, first compound 0.1 µM
[15] = second compound 0.1 µM, first compound 0.316 µM
[16] = second compound 0.1 µM, first compound 1 µM
[17] = second compound 0.316 µM, first compound 0.0316 µM
[18] = second compound 0.316 µM, first compound 0.1 µM
[19] = second compound 0.316 µM, first compound 0.316 µM
[20] = second compound 0.316 µM, first compound 1 µM
[21] = second compound 1 µM, first compound 0.0316 µM
[22] = second compound 1 µM, first compound 0.1 µM
[23] = second compound 1 µM, first compound 0.316 µM
[24] = second compound 1 µM, first compound 1 µM
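Also: spheroids exposed to compound for 7 days before readout.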
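For viability, T/C in this document: 100% = DMSO vehicle control wells.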

In the case of `CC(Nc1ccc2c(c1)OCCn1cc(N3C(=O)OCC3C(F)F)nc1-2)C(N)=O` (centres undefined) + C=CC(=O)N1CCN(c2nc(OCC3CCCN3C)nc3c(F)c(-c4nc(N)cc(C)c4C(F)(F)F)c(Cl)cc23)C(C)C1, the IC50 (second compound 0.00316 µM) is reported as 753 nM, the IC50 (second compound 0.01 µM) is reported as 926 nM and the IC50 (second compound 0.0316 µM) is reported as 1710 nM. For the same compound, the IC50 (second compound 0.1 µM) was 627 nM, the IC50 (second compound 0.316 µM) was 1430 nM and the IC50 (second compound 1 µM) was 1290 nM. The viability, T/C [1] was 86.4%, the viability, T/C [2] was 113% and the viability, T/C [3] was 76.7%. It also gave a viability, T/C [4] of 42.7%, a viability, T/C (second compound 0.00316 µM, first compound 3.16 µM) of 34.7% and a viability, T/C (second compound 0.00316 µM, first compound 10 µM) of 27.4%. The viability, T/C [5] was 105%, the viability, T/C [6] was 115% and the viability, T/C [7] was 80.3%. It also gave a viability, T/C [8] of 48.3%, a viability, T/C (second compound 0.01 µM, first compound 3.16 µM) of 37.1% and a viability, T/C (second compound 0.01 µM, first compound 10 µM) of 24.4%. It also gave a viability, T/C [9] of 96.1%, a viability, T/C [10] of 102% and a viability, T/C [11] of 76.1%. It also gave a viability, T/C [12] of 63.4%, a viability, T/C (second compound 0.0316 µM, first compound 3.16 µM) of 36.6% and a viability, T/C (second compound 0.0316 µM, first compound 10 µM) of 30.9%. It also gave a viability, T/C [13] of 103%, a viability, T/C [14] of 105% and a viability, T/C [15] of 66%. For the same compound, the viability, T/C [16] was 41.7%, the viability, T/C (second compound 0.1 µM, first compound 3.16 µM) was 37.2% and the viability, T/C (second compound 0.1 µM, first compound 10 µM) was 27.8%. It also gave a viability, T/C [17] of 89.8%, a viability, T/C [18] of 91.2% and a viability, T/C [19] of 72%. For the same compound, the viability, T/C [20] was 55.3%, the viability, T/C (second compound 0.316 µM, first compound 3.16 µM) was 40% and the viability, T/C (second compound 0.316 µM, first compound 10 µM) was 30.6%. For the same compound, the viability, T/C [21] was 104%, the viability, T/C [22] was 117% and the viability, T/C [23] was 85.9%. The viability, T/C [24] was 53.4%, the viability, T/C (second compound 1 µM, first compound 3.16 µM) was 47% and the viability, T/C (second compound 1 µM, first compound 10 µM) was 35.1%.
Compound `O=C(c1ccc(F)c(F)c1Nc1ccc(I)cc1F)N1CC(O)([C@@H]2CCCCN2)C1` + C=CC(=O)N1CCN(c2nc(OCC3CCCN3C)nc3c(F)c(-c4nc(N)cc(C)c4C(F)(F)F)c(Cl)cc23)C(C)C1 has an IC50 (second compound 0.00316 µM) of 260 nM, an IC50 (second compound 0.01 µM) of 677 nM and an IC50 (second compound 0.0316 µM) of 436 nM. For the same compound, the IC50 (second compound 0.1 µM) was 593 nM, the IC50 (second compound 0.316 µM) was over 1000 nM and the IC50 (second compound 1 µM) was 281 nM. It also gave a viability, T/C (second compound 0.00316 µM, first compound 0.00316 µM) of 91.4%, a viability, T/C (second compound 0.00316 µM, first compound 0.01 µM) of 116% and a viability, T/C [1] of 92.6%. The viability, T/C [2] was 64.8%, the viability, T/C [3] was 48% and the viability, T/C [4] was 43.9%. For the same compound, the viability, T/C (second compound 0.01 µM, first compound 0.00316 µM) was 92.5%, the viability, T/C (second compound 0.01 µM, first compound 0.01 µM) was 116% and the viability, T/C [5] was 79.7%. For the same compound, the viability, T/C [6] was 73.5%, the viability, T/C [7] was 53.5% and the viability, T/C [8] was 47.4%. The viability, T/C (second compound 0.0316 µM, first compound 0.00316 µM) was 104%, the viability, T/C (second compound 0.0316 µM, first compound 0.01 µM) was 117% and the viability, T/C [9] was 80.2%. It also gave a viability, T/C [10] of 74.6%, a viability, T/C [11] of 52.9% and a viability, T/C [12] of 42.1%. The viability, T/C (second compound 0.1 µM, first compound 0.00316 µM) was 103%, the viability, T/C (second compound 0.1 µM, first compound 0.01 µM) was 104% and the viability, T/C [13] was 94.4%. The viability, T/C [14] was 70.6%, the viability, T/C [15] was 60.6% and the viability, T/C [16] was 43%. The viability, T/C (second compound 0.316 µM, first compound 0.00316 µM) was 103%, the viability, T/C (second compound 0.316 µM, first compound 0.01 µM) was 113% and the viability, T/C [17] was 68.3%. The viability, T/C [18] was 70.7%, the viability, T/C [19] was 61% and the viability, T/C [20] was 48.7%. For the same compound, the viability, T/C (second compound 1 µM, first compound 0.00316 µM) was 101%, the viability, T/C (second compound 1 µM, first compound 0.01 µM) was 112% and the viability, T/C [21] was 97.9%. It also gave a viability, T/C [22] of 73.4%, a viability, T/C [23] of 45.8% and a viability, T/C [24] of 44.6%.
